Data reported in US12139487B2, “Compounds and uses thereof” (Foghorn Therapeutics Inc., priority 2022, dated 2024).

What was measured:
BRM = target: T1, BRM (Homo sapiens, UniProt P51531); experiment: ATPase catalytic activity assay (ADP-Glo), BRM; format: biochemical; settings: Table 10; for Ratio (BRG1 IC50 (μM) divided by BRM IC50 (μM)): ATPase assay, selectivity BRG1/BRM; for IC50: ATPase catalytic activity assay (ADP-Glo)
T1 construct: made in house; host or cells: High Five insect cells
Procedure, shortened: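 ADP-Glo luminescence measures ADP produced by BRM ATPase (30 nM) during 1 h at room temperature. ATP is 400 μM, with 20 nM salmon sperm DNA as cofactor. Buffer: 20 mM Tris pH 8, 20 mM MgCl2, 50 mM NaCl, 0.1% Tween-20, 1 mM DTT.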

BRG-1 = target: T2, BRG-1 (Homo sapiens, UniProt P51532); experiment: ATPase catalytic activity assay (ADP-Glo), BRG-1; format: biochemical; settings: Table 10, read-out: BRG1 IC50
T2 construct: made in house; host or cells: High Five insect cells
Procedure, shortened: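 Once the ATPase reaction finished, leftover ATP was depleted over 40 minutes at room temperature. Generated ADP was next turned back into ATP during a 60-minute room-temperature step. Luciferase-derived light was then measured.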

T2 sequence (P51532 whole entry): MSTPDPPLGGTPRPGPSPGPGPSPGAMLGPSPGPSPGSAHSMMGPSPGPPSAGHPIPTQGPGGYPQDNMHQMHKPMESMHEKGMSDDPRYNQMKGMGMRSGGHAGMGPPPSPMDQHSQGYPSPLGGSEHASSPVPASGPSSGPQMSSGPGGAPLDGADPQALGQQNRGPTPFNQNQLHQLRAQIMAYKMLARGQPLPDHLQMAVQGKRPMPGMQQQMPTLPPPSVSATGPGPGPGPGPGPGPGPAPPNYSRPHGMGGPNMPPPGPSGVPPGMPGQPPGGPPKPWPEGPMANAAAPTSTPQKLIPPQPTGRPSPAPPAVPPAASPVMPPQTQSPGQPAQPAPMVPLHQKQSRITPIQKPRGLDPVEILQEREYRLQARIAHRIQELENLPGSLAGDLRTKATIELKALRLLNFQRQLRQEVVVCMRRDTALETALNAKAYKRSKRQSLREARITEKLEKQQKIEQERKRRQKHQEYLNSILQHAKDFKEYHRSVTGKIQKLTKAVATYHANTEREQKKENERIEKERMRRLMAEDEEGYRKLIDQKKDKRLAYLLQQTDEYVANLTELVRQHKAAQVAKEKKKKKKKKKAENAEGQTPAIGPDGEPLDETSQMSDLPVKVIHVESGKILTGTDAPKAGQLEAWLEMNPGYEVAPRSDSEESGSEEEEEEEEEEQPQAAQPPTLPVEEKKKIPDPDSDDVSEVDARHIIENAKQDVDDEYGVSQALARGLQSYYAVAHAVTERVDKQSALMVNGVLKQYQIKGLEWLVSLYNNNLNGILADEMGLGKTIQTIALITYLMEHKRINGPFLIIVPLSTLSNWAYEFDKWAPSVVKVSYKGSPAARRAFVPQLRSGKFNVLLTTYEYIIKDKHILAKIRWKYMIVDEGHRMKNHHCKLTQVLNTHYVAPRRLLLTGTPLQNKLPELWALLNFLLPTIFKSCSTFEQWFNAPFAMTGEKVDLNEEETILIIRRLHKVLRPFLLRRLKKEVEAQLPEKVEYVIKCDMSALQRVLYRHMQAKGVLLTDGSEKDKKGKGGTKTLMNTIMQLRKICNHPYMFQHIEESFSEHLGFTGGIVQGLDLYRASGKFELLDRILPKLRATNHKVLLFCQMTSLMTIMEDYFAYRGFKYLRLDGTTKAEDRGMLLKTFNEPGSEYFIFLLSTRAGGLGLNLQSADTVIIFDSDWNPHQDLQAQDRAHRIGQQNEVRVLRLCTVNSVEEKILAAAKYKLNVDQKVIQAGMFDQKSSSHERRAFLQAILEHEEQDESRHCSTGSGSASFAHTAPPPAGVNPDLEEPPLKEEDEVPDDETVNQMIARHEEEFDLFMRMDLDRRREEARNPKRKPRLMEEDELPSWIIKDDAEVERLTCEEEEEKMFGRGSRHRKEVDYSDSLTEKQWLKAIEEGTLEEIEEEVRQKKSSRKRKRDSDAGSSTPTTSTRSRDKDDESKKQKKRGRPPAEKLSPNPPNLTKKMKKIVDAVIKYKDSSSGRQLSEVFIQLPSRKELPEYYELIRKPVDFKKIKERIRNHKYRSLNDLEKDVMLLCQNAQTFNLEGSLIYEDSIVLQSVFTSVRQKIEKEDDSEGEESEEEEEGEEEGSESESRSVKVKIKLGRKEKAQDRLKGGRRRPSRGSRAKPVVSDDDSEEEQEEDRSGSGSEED
T1 sequence (P51531 whole entry): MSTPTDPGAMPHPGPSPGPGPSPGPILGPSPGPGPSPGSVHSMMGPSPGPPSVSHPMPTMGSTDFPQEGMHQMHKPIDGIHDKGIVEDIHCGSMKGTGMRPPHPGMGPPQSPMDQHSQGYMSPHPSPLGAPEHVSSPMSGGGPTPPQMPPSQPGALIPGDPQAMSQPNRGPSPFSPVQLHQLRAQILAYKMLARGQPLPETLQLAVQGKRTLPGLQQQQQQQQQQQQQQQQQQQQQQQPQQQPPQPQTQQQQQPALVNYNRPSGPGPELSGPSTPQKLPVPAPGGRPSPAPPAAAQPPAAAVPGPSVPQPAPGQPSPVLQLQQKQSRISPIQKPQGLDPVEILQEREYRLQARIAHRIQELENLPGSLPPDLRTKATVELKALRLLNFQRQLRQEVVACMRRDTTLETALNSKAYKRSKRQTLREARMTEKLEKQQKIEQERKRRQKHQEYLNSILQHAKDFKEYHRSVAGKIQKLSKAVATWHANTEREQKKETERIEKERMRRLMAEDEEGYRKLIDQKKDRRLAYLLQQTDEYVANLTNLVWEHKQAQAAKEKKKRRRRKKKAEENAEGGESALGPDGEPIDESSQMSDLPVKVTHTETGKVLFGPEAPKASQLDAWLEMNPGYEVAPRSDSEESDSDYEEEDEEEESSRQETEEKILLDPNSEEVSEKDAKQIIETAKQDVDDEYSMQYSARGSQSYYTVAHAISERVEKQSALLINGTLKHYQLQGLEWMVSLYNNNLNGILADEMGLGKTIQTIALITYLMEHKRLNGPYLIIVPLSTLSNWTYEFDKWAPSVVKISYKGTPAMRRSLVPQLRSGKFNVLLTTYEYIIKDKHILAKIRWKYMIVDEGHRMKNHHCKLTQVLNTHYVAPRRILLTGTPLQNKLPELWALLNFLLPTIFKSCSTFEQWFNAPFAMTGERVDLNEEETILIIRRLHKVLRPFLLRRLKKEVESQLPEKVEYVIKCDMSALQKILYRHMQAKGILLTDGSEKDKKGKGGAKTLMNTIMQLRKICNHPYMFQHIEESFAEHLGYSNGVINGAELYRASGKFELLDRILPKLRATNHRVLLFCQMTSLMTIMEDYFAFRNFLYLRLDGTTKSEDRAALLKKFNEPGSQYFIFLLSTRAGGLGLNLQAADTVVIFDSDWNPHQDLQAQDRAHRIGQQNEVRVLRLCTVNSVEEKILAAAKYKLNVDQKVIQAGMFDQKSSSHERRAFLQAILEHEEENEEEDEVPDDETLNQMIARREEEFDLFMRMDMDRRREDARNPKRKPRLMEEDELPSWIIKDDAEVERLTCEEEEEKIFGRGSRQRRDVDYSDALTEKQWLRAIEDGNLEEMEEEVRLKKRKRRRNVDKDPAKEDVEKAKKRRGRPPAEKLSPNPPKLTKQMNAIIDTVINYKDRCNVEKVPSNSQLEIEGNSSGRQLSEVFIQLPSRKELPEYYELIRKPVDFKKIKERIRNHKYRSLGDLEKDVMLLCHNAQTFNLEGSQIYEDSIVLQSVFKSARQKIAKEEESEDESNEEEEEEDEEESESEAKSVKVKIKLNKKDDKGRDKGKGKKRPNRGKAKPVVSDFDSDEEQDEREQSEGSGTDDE

SMILES | Ratio (BRG1 IC50 (μM) divided by BRM IC50 (μM)) (BRM) | IC50 (BRM) [nM] | IC50 (BRG-1) [nM]
O=C(NCc1cc2nc(N3CCOc4ccc(C5CC5)nc43)ccc2cn1)c1ccc2c(c1)S(=O)(=O)[C@@H](F)CCO2 [Compound 96] | 22.86 | 3.4 | 86.4
[2H]C1([2H])OC[C@H](F)S(=O)(=O)c2cc(C(=O)NCc3cc4nc(N5CCOc6ccc(C(F)F)nc65)ccc4cn3)cc(F)c21 [Compound 140] | 17.66 | 4.7 | 83.1
[2H]C1([2H])OC([2H])([2H])[C@H](F)S(=O)(=O)c2cc(C(=O)NCc3cc4nc(N5CCOc6cc(N7CC(F)C7)cnc65)ccc4cn3)cc(F)c21 [Compound 56] | – | 2.5 | 58.2
C[C@@H]1CN(c2cccc(-c3ccc4cnc(CNC(=O)c5ccc6c(c5)S(=O)(=O)[C@H](F)CCN6C)cc4n3)n2)C[C@H](C)O1 [Compound 319] | 25.94 | 192 | 4990
O=C(NCc1cc2nc(N3CCOc4cc(N5C[C@@H](F)[C@@H](F)C5)cnc43)ccc2cn1)c1cc(F)c2c(c1)S(=O)(=O)[C@@H](F)CCO2 [Compound 124] | 15.93 | 4.3 | 74.9
C[C@@H]1CN(c2cccc(-c3ccc4cnc(CNC(=O)c5ccc6c(c5)S(=O)(=O)[C@@H](F)CN(C)C6)cc4n3)n2)C[C@H](C)O1 [Compound 1, (R)—N-((2-(6-((2S,6R)-2,6-dimethylmorpholino)pyridin-2-yl)-1,6-naphthyridin-7-yl)methyl)-2-fluoro-4-methyl-2,3,4,5-tetrahydrobenzo[f][1,4]thiazepine-8-carboxamide 1,1-dioxide] | 7.29 | 2.9 | 21.4
COCCOc1ccc2c(c1)N(c1ccc3cnc(CNC(=O)c4cc(F)c5c(c4)S(=O)(=O)[C@@H](F)CCO5)cc3n1)CCO2 [Compound 35] | 13.74 | 1.9 | 23.3
COc1nc(C(F)F)ccc1-c1ccc2cnc(CNC(=O)c3ccc4c(c3)S(=O)(=O)[C@@H](F)CO[C@H]4C)cc2n1 [Compound 197] | 14.25 | 6 | 84.6
CN(C)c1cnc2c(c1)OCCN2c1ccc2cnc(CNC(=O)c3cc(F)c4c(c3)S(=O)(=O)[C@@H](F)COC4)cc2n1 [Compound 33] | 11.17 | 1.9 | 18.9
C[C@@H]1CN(c2cccc(-c3ccc4cnc(CNC(=O)c5cc(F)c6c(c5)S(=O)(=O)[C@H](F)C[C@H](C)O6)cc4n3)n2)C[C@H](C)O1 [Compound 34, (2S,4S)—N-((2-(6-((2S,6R)-2,6-dimethylmorpholino)pyridin-2-yl)-1,6-naphthyridin-7-yl)methyl)-4,9-difluoro-2-methyl-3,4-dihydro-2H-benzo[b][1,4]oxathiepine-7-carboxamide 5,5-dioxide] | 12.17 | 120 | 1470
O=C(NCc1cc(C#Cc2cccc(OC(F)F)n2)ccn1)c1cc(F)c2c(c1)S(=O)(=O)[C@@H](F)COC2 [Compound 184, (R)—N-((4-((6-(difluoromethoxy)pyridin-2-yl)ethynyl)pyridin-2-yl)methyl)-2,6-difluoro-3,5-dihydro-2H-benzo[e][1,4]oxathiepine-8-carboxamide 1,1-dioxide] | 23.91 | 143 | 3420
O=C(NCc1cc2nc(-c3cccc(OC(F)F)n3)ccc2cn1)c1cc(F)c2c(c1)S(=O)(=O)[C@@H](F)COC2 [Compound 205] | 23.40 | 6.1 | 128
O=C(NCc1cc2nc(N3CCCc4c(OC(F)F)ccnc43)ccc2cn1)c1cc(F)c2c(c1)S(=O)(=O)[C@@H](F)CCO2 [Compound 169] | 10.91 | 5.3 | 58.3
O=C(NCc1cc2nc(-c3cccc(OC(F)F)c3)ccc2cn1)c1cc(F)c2c(c1)S(=O)(=O)[C@@H](F)COC2 [Compound 297, (2R)—N-[[2-[3-(difluoromethoxy)phenyl]-1,6-naphthyridin-7-yl]methyl]-2,6-difluoro-1,1-dioxo-3,5-dihydro-2H-4,1λ6-benzoxathiepine-8-carboxamide] | 29.64 | 9.9 | 266
[2H]C1([2H])Oc2c(F)cc(C(=O)NCc3cc4nc(-c5ccc(OC(F)F)c(C6CC6)n5)ccc4cn3)cc2S(=O)(=O)[C@@]([2H])(F)C1([2H])[2H] [Compound 186] | 16.18 | 5.7 | 102
C[C@@H]1CN(c2cccc(-c3ccc4cnc(CNC(=O)c5ccc6c(c5)S(=O)(=O)[C@@H](F)CCO6)cc4n3)n2)C[C@H](C)O1 [Compound 22] | 9.93 | 1.6 | 16.2
O=C(NCc1cc2nc(N3CCOc4cc(C5CC5)cnc43)ccc2cn1)c1cc(Cl)c2c(c1)S(=O)(=O)[C@@H](F)COC2 [Compound 61] | 21.08 | 2.6 | 48.5
COc1nc([C@H](C)F)ccc1-c1ccc2cnc(CNC(=O)c3cc(Cl)c4c(c3)S(=O)(=O)[C@@H](F)COC4)cc2n1 [Compound 174] | 28.19 | 5.6 | 158
COc1nc([C@](C)(F)C(F)F)ccc1-c1ccc2cnc(CNC(=O)c3ccc4c(c3)S(=O)(=O)[C@@H](F)CCOC4)cc2n1 [Compound 43] | – | 2 | 40.6

Results, then the molecule that gave them:

Ratio (BRG1 IC50 (μM) divided by BRM IC50 (μM)) (BRM) | IC50 (BRM) [nM] | IC50 (BRG-1) [nM] | SMILES
12.19 | 3.5 | 42.7 | CCN(CC)c1cnc2c(c1)OCCN2c1ccc2cnc(CNC(=O)c3cc(F)c4c(c3)S(=O)(=O)[C@@H](F)CCO4)cc2n1 [Compound 99]
24.88 | 5.9 | 168 | O=C(NCc1cc2nc(-c3ccnc([C@H]4CC4(F)F)n3)ccc2cn1)c1cc(F)c2c(c1)S(=O)(=O)[C@@H](F)CCO2 [Compound 195]
17.70 | 3.2 | 51.2 | O=C(NCc1cc2nc(N3CCOc4ccc(N5CC[C@@H](F)C5)nc43)ccc2cn1)c1cc(F)c2c(c1)S(=O)(=O)[C@@H](F)CCO2 [Compound 86]
18.99 | 7.2 | 153 | O=C(NCc1cc2cc(-c3cncc(C4CC4)n3)ccc2cn1)c1cc(F)c2c(c1)S(=O)(=O)[C@@H](F)CCO2 [Compound 230]
15.94 | 4.5 | 71.1 | O=C(NCc1cc2nc(N3CCOc4cc(C56CC(C5)C6)cnc43)ccc2cn1)c1cc(F)c2c(c1)S(=O)(=O)[C@@H](F)CCO2 [Compound 130]
18.60 | 4.5 | 111 | CCOc1ccnc2c1OCCN2c1ccc2cnc(CNC(=O)c3cc(F)c4c(c3)S(=O)(=O)[C@@H](F)CCO4)cc2n1 [Compound 129]
20.95 | 5.8 | 132 | O=C(NCc1cc2nc(-c3ccnc(N4CCCC4)n3)ccc2cn1)c1cc(F)c2c(c1)S(=O)(=O)[C@@H](F)CCO2 [Compound 188]
11.56 | 8.7 | 101 | O=C(NCc1cc2nc(N3CCOc4cc(C(F)(F)F)cnc43)ccc2cn1)c1cc(F)c2c(c1)S(=O)(=O)[C@@H](F)CCO2 [Compound 265]
18.05 | 1.8 | 33 | O=C(NCc1cc2nc(N3CCOc4cc(N5CC[C@H]5CF)cnc43)ccc2cn1)c1cc(F)c2c(c1)S(=O)(=O)[C@@H](F)CCO2 [Compound 31]
13.39 | 7.8 | 98.5 | CCOc1cnc2c(c1)OCCN2c1ccc2cnc(CNC(=O)c3cc(F)c4c(c3)S(=O)(=O)[C@@H](F)CCO4)cc2n1 [Compound 247]
11.98 | 4.8 | 58.1 | COCc1ccnc2c1OCCN2c1ccc2cnc(CNC(=O)c3cc(F)c4c(c3)S(=O)(=O)[C@@H](F)CCO4)cc2n1 [Compound 147]
18.29 | 5.7 | 104 | O=C(NCc1cc2nc(N3CCOc4cc(OC(F)F)cnc43)ccc2cn1)c1cc(F)c2c(c1)S(=O)(=O)[C@@H](F)CCO2 [Compound 180]
10.49 | 8.8 | 91.8 | Cc1cc2c(-c3ccc4cnc(CNC(=O)c5cc(F)c6c(c5)S(=O)(=O)[C@@H](F)CCO6)cc4n3)ccnc2n1C [Compound 267]
25.74 | 7.8 | 245 | O=C(NCc1cc2nc(N3CCOc4cc(N5CC(F)(F)C5)cnc43)ccc2cn1)c1cc(F)c2c(c1)S(=O)(=O)[C@@H](F)CCO2 [Compound 244]
21.18 | 6.5 | 148 | O=C(NCc1cc2nc(N3CCOc4cc(C5CC5)cnc43)ccc2cn1)c1cc(Cl)c2c(c1)S(=O)(=O)[C@@H](F)CCO2 [Compound 216]
9.91 | 7.1 | 70.5 | COc1nc(-c2ccc3cnc(CNC(=O)c4cc(F)c5c(c4)S(=O)(=O)[C@@H](F)CCO5)cc3n2)ccc1[C@H](F)CF [Compound 227]
14.02 | 9.1 | 128 | COCC1(c2cccc(-c3ccc4cnc(CNC(=O)c5cc(F)c6c(c5)S(=O)(=O)[C@@H](F)CCO6)cc4n3)n2)CC1 [Compound 275]
